Literature values, collected in patent US20090232888A1, “SUSTAINED DELIVERY OF ANTIBIOTICS” (ORIENT PHARMA, priority 2008, published 2009).

How the values were obtained:
[1] = solution, 4° C., shelf-life based on 90% residual potency

For CN[C@H](CC(C)C)C(=O)N[C@H]1C(=O)N[C@@H](CC(N)=O)C(=O)N[C@H]2C(=O)N[C@H]3C(=O)N[C@H](C(=O)N[C@H](C(=O)O)c4cc(O)cc(O)c4-c4cc3ccc4O)[C@H](O)c3ccc(c(Cl)c3)Oc3cc2cc(c3O[C@@H]2O[C@H](CO)[C@@H](O)[C@H](O)[C@H]2O[C@H]2C[C@](C)(N)[C@H](O)[C@H](C)O2)Oc2ccc(cc2Cl)[C@H]1O [vancomycin], the oral bioavailability is listed as “negligible” and the “time vancomycin solutions were stable (shelf-life of 90% residual potency)” value [1] is listed as “at least 58 days”.
